Data set [1] deals with HIV. Briefly: Anti-HIV activity in MT-4 cells (viral antigen expression, fluorescent antibody method). It counts as cell-based. As to the method: Anti-HIV activity (anti-Human Immunodeficiency Virus activity) was measured in the following manner. Thus, about 100,000 cells/ml of MT-4 cells were placed in a 24-well tray, and 100 μl of a solution containing a predetermined quantity of a compound of this invention was added thereto. After culturing it at 37° C. for 2 hours in a 5% (v/v) carbon dioxide incubator, 2.5×10^5 infection units of HIV was added and cultured for 4 days. Then, a portion of the culture fluid was applied onto a slide glass and immobilized with acetone, after which expression of the viral antigen was tested according to the fluorescent antibody method. As the primary antibody of the fluorescent antibody method, a serum of AIDS patient was used. As the secondary antibody, FITC-labelled anti-human IgG was used.
The test were conducted in a comparative manner, using oxetanocin A as a control substance for each of Experiment 1 and 2.

Data set [2] relates to adenosine deaminase. In words: Stability to adenosine deaminase (residual percentage by HPLC). It counts as in vitro ADME, young calf. Particulars: 0 min; pH 6.8, 37° C., 5 units adenosine deaminase. On the procedure: (§1) Sample (0.05 ml) was dissolved into 20 ml of 0.1M phosphate buffer (pH 6.8), and 5 units of adenosine deaminase originated from young calf intestinal mucous membrane (SIGMA Product No. A-1155) was added. While keeping the resulting mixture at a constant temperature of 37° C., its 1 ml portion was sampled out at predetermined intervals. After adding 1 μmole of coformycin and 10-hold diluting the mixture with water, residual percentage of the sample was determined by reverse phase high performance liquid chromatography (column: Senshu Pak ODS-5121-N, 6.phi.×150 mm; eluent: 0.1M citrate buffer-acetonitrile-methanol (50:2:1); flow rate: 1.8 ml/min.; detection: UV detector, 254 nm).

Assay in data set [3]: as above
It counts as in vitro ADME, young calf. Particulars: bovine, pH 6.8, 37° C., 5 units adenosine deaminase; for remaining at 0.5 h: 30 min; for remaining at 1 h: 60 min; for remaining at 2 h: 120 min. As to the method: as §1

Data set [4] concerns cytomegalovirus (A0169 strain). In words: Anti-cytomegalovirus activity (plaque reduction in human embryo fibroblast). It counts as cell-based. Particulars: for EC50: Human betaherpesvirus 5, 240 h, plaque number, human embryo fibroblast, 10 days, 37° C., read-out: Anti-cytomegalovirus activity ED50 (50% inhibitory value). As to the method:
Anti-cytomegalovirus activity was measured in the following manner. Thus, a 35 mm dish having a single layer of human embryo fibroblast was infected with 100 PFU (Plaque Forming Units) of cytomegalovirus (A0169 strain). After adsorption for one hour, it was covered with a layer of a medium [0.5% agarose and 2% fetal calf serum] containing a varied concentration of a compound of this invention. After culturing it for 10 days at 37° C. in a 5% (v/v) carbon dioxide incubator, the number of plaques formed was measured.

Data set [5] has as its system virus. Particulars: prior art: Journal of Antibiotics 39, 1623-25 (1986), EP-A2-0182315; cited from earlier work.

Converted amounts (≈) assume the structure as drawn.

`Nc1nc(Cl)nc2c1ncn2[C@@H]1O[C@H](CO)[C@H]1CO` [Compound No. 2, 2-Chloro-oxetanocin A]: the “activity against HIV (in words)” value in data set [1] is reported as “excellent activities against HIV”. Moreover, in data set [2], the “Residual percentage (%)” value is recorded as 100%. Also, in data set [3], the amount remaining at 10 min is 100%, the share remaining at 0.5 h turned out to be 100%, the amount remaining at 1 h was found to be 100% and the fraction remaining at 2 h amounted to 100%.

`Nc1nc(F)nc2c1ncn2[C@@H]1O[C@H](COP(=O)(O)O)[C@H]1CO` [Compound No. 5, 2-Fluoro-oxetanocin A 4'-phosphate]: the “Residual percentage (%)” value in data set [2] amounted to 100%. In data set [3], this compound gave a fraction remaining at 10 min of 100%, a fraction remaining at 0.5 h of 100%, a fraction remaining at 1 h of 100% and a fraction remaining at 2 h of 100%.

As for `Nc1ncnc2c1ncn2[C@@H]1O[C@H](CO)[C@H]1CO` [Oxetanocin A], in data set [4], the EC50 amounted to 13 µg/mL (≈ 51.7 µM). The “Residual percentage (%)” value in data set [2] came to 100%. In data set [3], this compound came in with a share remaining at 10 min of 85%, an amount remaining at 0.5 h of 28%, a share remaining at 1 h of 0% and an amount remaining at 2 h of 0%.

On to `Nc1nc(F)nc2c1ncn2[C@@H]1O[C@H](CO)[C@H]1CO` [Compound No. 1, 2-Fluoro-oxetanocin A], for which, in data set [4], the “activity against cytomegalovirus (in words)” value is listed as “excellent activity against cytomegalovirus” and the EC50 is 0.3 µg/mL (≈ 1.11 µM). The “activity against HIV (in words)” value in data set [1] was “excellent activities against HIV”. In data set [2], the “Residual percentage (%)” value was 100%. Further, in data set [3], the share remaining at 10 min stood at 100%, the fraction remaining at 0.5 h was found to be 100%, the fraction remaining at 1 h came to 100% and the fraction remaining at 2 h was 100%.

Turning to `Nc1nc(Cl)nc2c1ncn2[C@@H]1O[C@H](COP(=O)(O)O)[C@H]1CO` [Compound No. 6, 2-Chloro-oxetanocin A 4'-phosphate], in data set [1], the “activity against HIV (in words)” value was “excellent activities against HIV”. Further, in data set [2], the “Residual percentage (%)” value was found to be 100%. In addition, in data set [3], the share remaining at 10 min came to 100%, the share remaining at 0.5 h was 100%, the share remaining at 1 h is 100% and the amount remaining at 2 h was 100%.

On to `Nc1ncnc2c1ncn2[C@@H]1O[C@H](CO)[C@H]1CO` [Oxetanocin], for which the “antiviral activity (in words)” value in data set [5] was “having an antiviral activity”.

By fraction remaining is commonly meant what is left of the initial amount, in per cent. A low value points to a greater loss.

The values are drawn from US5283331A, “2-halogeno-oxetanocin A and phosphoric ester thereof” (Nippon Kayaku Kabushiki Kaisha, priority 1990, dated 1994).
